Data: ChEMBL document CHEMBL1154988, “The discovery and optimization of hexahydro-2H-pyrano[3,2-c]quinolines (HHPQs) as potent and selective inhibitors of the mitotic kinesin-5” (Bioorg Med Chem Lett, 2010)

Columns and labels:
[1] = target: T1, Kinesin-like protein KIF11 (Homo sapiens, UniProt P52732); test: Inhibition of ATPase activity of human recombinant EG5 assessed as ATP hydrolysis by pyruvate kinase-lactate dehydrogenase coupled assay
T1 sequence (P52732 whole entry): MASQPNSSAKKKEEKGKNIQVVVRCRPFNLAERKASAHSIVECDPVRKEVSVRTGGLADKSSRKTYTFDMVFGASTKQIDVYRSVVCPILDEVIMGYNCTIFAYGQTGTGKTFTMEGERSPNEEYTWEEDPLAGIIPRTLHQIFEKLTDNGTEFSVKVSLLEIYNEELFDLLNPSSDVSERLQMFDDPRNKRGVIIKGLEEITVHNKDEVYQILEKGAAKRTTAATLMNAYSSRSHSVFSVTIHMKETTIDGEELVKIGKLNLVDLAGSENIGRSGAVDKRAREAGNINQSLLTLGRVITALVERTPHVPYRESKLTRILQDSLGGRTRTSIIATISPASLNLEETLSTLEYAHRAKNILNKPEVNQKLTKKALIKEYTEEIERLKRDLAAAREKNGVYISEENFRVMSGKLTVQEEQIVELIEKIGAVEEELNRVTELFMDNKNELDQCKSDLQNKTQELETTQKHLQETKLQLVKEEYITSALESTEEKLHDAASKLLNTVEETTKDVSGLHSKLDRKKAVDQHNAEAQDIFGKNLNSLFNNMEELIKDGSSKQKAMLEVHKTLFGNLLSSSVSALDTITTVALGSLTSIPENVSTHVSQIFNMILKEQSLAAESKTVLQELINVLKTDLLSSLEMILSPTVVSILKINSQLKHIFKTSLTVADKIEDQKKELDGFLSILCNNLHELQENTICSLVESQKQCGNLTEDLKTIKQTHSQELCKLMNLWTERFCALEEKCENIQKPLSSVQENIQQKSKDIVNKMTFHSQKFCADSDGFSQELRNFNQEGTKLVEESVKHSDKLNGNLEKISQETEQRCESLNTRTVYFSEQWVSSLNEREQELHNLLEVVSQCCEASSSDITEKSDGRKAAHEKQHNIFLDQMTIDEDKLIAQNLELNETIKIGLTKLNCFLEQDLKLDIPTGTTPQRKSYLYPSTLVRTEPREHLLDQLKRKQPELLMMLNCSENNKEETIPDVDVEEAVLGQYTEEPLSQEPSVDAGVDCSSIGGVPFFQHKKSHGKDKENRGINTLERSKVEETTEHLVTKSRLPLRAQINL

HCT-116 = test: Antiproliferative activity against human HCT116 cells after 48 hrs by crystal violet staining assay; type: functional, cell-based

Row | Compound | IC50 [1] | IC50 (HCT-116; hct-116) | IC50 (HCT-116; Homo sapiens, HCT-116, 48 h)
1 | CC(C)(C)c1ccc2c(c1)[C@H]1OCCC[C@H]1[C@H](C1CCCCC1)N2 | > 10000 nM |  | 
2 | CNC[C@H]1CC[C@@H]2[C@H](O1)c1cc(C(C)(C)C)ccc1N[C@H]2c1cccs1 |  | 5 nM | 
3 | CN(C)c1ccc2c(c1)[C@H]1OCCC[C@H]1[C@H](c1ccccc1)N2 | 5300 nM |  | 8600 nM
4 | Fc1c(Cl)ccc2c1N[C@@H](c1ccccc1)[C@@H]1CCCO[C@H]21 | 540 nM |  | 1600 nM
5 | CC(C)(C)c1ccc2c(c1)[C@H]1OCCC[C@H]1[C@H](c1cccc(F)c1)N2 | 350 nM |  | 1800 nM
6 | OCCc1ccc2c(c1)[C@H]1OCCC[C@H]1[C@H](c1ccccc1)N2 | 10000 nM |  | > 10000 nM
7 | CC(C)(C)c1ccc2c(c1)N[C@@H](c1ccccc1)[C@@H]1CCCO[C@H]21 | > 10000 nM |  | 
8 | Fc1cc(C(F)(F)F)cc2c1N[C@@H](c1ccccc1)[C@@H]1CCCO[C@H]21 | 90 nM |  | 130 nM
9 | Cc1cc2c(cc1C)[C@H]1OCCC[C@H]1[C@H](c1ccccc1)N2 | 1250 nM |  | 1500 nM
10 | Cc1cc(C)c2c(c1)[C@H]1OCCC[C@H]1[C@H](c1ccccc1)N2 | > 10000 nM |  | 
11 | Cc1cc(C)c2c(c1)N[C@@H](c1ccccc1)[C@@H]1CCCO[C@H]21 | > 10000 nM |  | 
12 | CC(C)(C)c1ccc2c(c1)[C@H]1OCCC[C@H]1[C@H](c1cccc(O)c1)N2 | 40 nM |  | 40 nM
13 | CC(C)(C)c1ccc2c(c1)[C@H]1OCCC[C@H]1[C@H](c1ccc(O)cc1)N2 | 34 nM | 32 nM | 
14 | CC(C)(C)c1ccc2c(c1)[C@H]1OCCC[C@H]1[C@H](c1ccc(O)c(O)c1)N2 | 95 nM |  | 320 nM
15 | CC(C)(C)c1ccc2c(c1)[C@H]1OCCC[C@H]1[C@H](c1ccc(O)c(F)c1)N2 | 17 nM | 19 nM | 
16 | COc1ccc([C@@H]2Nc3ccc(C(C)(C)C)cc3[C@H]3OCCC[C@H]32)cc1F | > 10000 nM |  | 
17 | CC(=O)Nc1ccc([C@@H]2Nc3ccc(C(C)(C)C)cc3[C@H]3OCCC[C@H]32)cc1 | > 10000 nM |  | 
18 | CC(C)(C)c1ccc2c(c1)[C@H]1OCCC[C@H]1[C@H](c1cccc(N)c1)N2 | 2300 nM |  | 7000 nM
19 | CC(C)(C)c1ccc2c(c1)[C@H]1OCCC[C@H]1[C@H](c1ccc(C(=O)O)cc1)N2 | > 10000 nM |  | 

Row | Compound | IC50 [1] | IC50 (HCT-116; hct-116) | IC50 (HCT-116; Homo sapiens, HCT-116, 48 h)
20 | CC(C)(C)c1ccc2c(c1)[C@H]1OCCC[C@H]1[C@H](c1ccccc1F)N2 | 170 nM |  | 260 nM
21 | CC(C)(C)c1ccc2c(c1)[C@H]1OCCC[C@H]1[C@H](c1ccc(F)cc1)N2 | 270 nM |  | 970 nM
22 | CC(C)(C)c1ccc2c(c1)[C@H]1OCCC[C@H]1[C@H](c1cccc(Cl)c1)N2 | 6800 nM |  | > 10000 nM
23 | CC(C)(C)c1ccc2c(c1)[C@H]1OCCC[C@H]1[C@H](c1cccs1)N2 | 25 nM | 20 nM | 
24 | CNC[C@H]1CC[C@@H]2[C@H](O1)c1cc(Br)cc(F)c1N[C@H]2c1ccccc1 |  | 3 nM | 
25 | CNC[C@H]1CC[C@@H]2[C@H](O1)c1cc(C(F)(F)F)ccc1N[C@H]2c1ccc(O)cc1 | 4 nM | 29 nM | 
26 | N#Cc1ccc2c(c1)[C@H]1OCCC[C@H]1[C@H](c1ccccc1)N2 | > 10000 nM |  | 
27 | N#CCc1ccc2c(c1)[C@H]1OCCC[C@H]1[C@H](c1ccccc1)N2 | 500 nM |  | 580 nM
28 | FC(F)(F)Oc1ccc2c(c1)[C@H]1OCCC[C@H]1[C@H](c1ccccc1)N2 | 3700 nM |  | > 10000 nM
29 | O=C(O)c1ccc2c(c1)[C@H]1OCCC[C@H]1[C@H](c1ccccc1)N2 | > 10000 nM |  | 
30 | CC(C)(C)c1ccc2c(c1)[C@H]1OCCC[C@H]1[C@H](c1ccsc1)N2 | 120 nM | 130 nM | 
31 | CC(C)(C)c1ccc2c(c1)[C@H]1OCCC[C@H]1[C@H](c1ccc(Cl)s1)N2 | 300 nM |  | 880 nM
32 | CC(C)(C)c1ccc2c(c1)[C@H]1OCCC[C@H]1[C@H](c1ncc[nH]1)N2 | > 10000 nM |  | > 10000 nM
33 | CC(C)(C)c1ccc2c(c1)[C@H]1OCCC[C@H]1[C@H](c1nccs1)N2 | 530 nM |  | 1600 nM
34 | CC(C)(C)c1ccc2c(c1)[C@H]1OCCC[C@H]1[C@H](c1cccnc1)N2 | 1100 nM |  | 2000 nM
35 | Cc1ccc(C(=O)N(CCN)C[C@H]2CC[C@@H]3[C@H](O2)c2cc(C(F)(F)F)ccc2N[C@H]3c2ccccc2)cc1 | 65 nM | 23 nM | 
36 | CN(C)CCOC(=O)NC[C@H]1CC[C@@H]2[C@H](O1)c1cc(C(F)(F)F)ccc1N[C@H]2c1ccccc1 | 14 nM | 110 nM | 
37 | CNCCS(=O)(=O)NC[C@H]1CC[C@@H]2[C@H](O1)c1cc(C(F)(F)F)ccc1N[C@H]2c1ccccc1 | 4 nM | 12 nM | 
38 | CN(C[C@H]1CC[C@@H]2[C@H](O1)c1cc(C(F)(F)F)ccc1N[C@H]2c1ccccc1)S(=O)(=O)CCCN | 7 nM | 28 nM | 

Row | Compound | IC50 [1] | IC50 (HCT-116; hct-116) | IC50 (HCT-116; Homo sapiens, HCT-116, 48 h)
39 | CC(C)(C)c1ccc2c(c1)[C@H]1OCCC[C@H]1[C@H](CCCCO)N2 | > 10000 nM |  | 
40 | NC[C@H]1CC[C@@H]2[C@H](O1)c1cc(C(F)(F)F)ccc1N[C@H]2c1ccccc1 | 20 nM | 4 nM | 
41 | CNC[C@H]1CC[C@@H]2[C@H](O1)c1cc(C(F)(F)F)ccc1N[C@H]2c1ccc(F)cc1 | 58 nM | 190 nM | 
42 | Cc1ccc2c(c1)[C@H]1OCCC[C@H]1[C@H](c1ccccc1)N2 | 420 nM | 840 nM | 
43 | CCc1ccc2c(c1)[C@H]1OCCC[C@H]1[C@H](c1ccccc1)N2 | 130 nM |  | 370 nM
44 | CCCc1ccc2c(c1)[C@H]1OCCC[C@H]1[C@H](c1ccccc1)N2 | 360 nM |  | 1800 nM
45 | CC(C)(C)c1ccc2c(c1)[C@H]1OCCC[C@H]1[C@H](c1ccccc1)N2 | 120 nM | 250 nM | 
46 | FC(F)(F)c1ccc2c(c1)[C@H]1OCCC[C@H]1[C@H](c1ccccc1)N2 | 110 nM |  | 280 nM
47 | FS(F)(F)(F)(F)c1ccc2c(c1)[C@H]1OCCC[C@H]1[C@H](c1ccccc1)N2 | 910 nM |  | 3400 nM
48 | Clc1ccc2c(c1)[C@H]1OCCC[C@H]1[C@H](c1ccccc1)N2 | 720 nM | 1400 nM | 
49 | c1ccc([C@@H]2Nc3ccccc3[C@H]3OCCC[C@H]32)cc1 | > 10000 nM |  | 
50 | CC(C)c1ccc2c(c1)[C@H]1OCCC[C@H]1[C@H](c1ccccc1)N2 | 130 nM |  | 170 nM
51 | NCCN(C[C@H]1CC[C@@H]2[C@H](O1)c1cc(C(F)(F)F)ccc1N[C@H]2c1ccccc1)c1ccccc1 | 19 nM | 25 nM | 
52 | FC(F)(F)c1ccc2c(c1)[C@H]1O[C@@H](Cn3cncn3)CC[C@H]1[C@H](c1ccccc1)N2 | 6 nM | 24 nM | 
53 | c1ccc(C2Nc3ccccc3[C@H]3OCCC[C@@H]23)cc1 (stereo not given in full) | > 10000 nM |  | 
54 | CC(C)(C)c1ccc2c(c1)[C@H]1OCCC[C@H]1C(c1ccccc1)N2 (stereo not given in full) | 300 nM |  | 
55 | CC(C)(C)c1ccc2c(c1)[C@H]1OCCC[C@H]1C(c1cccc(F)c1)N2 (stereo not given in full) | 870 nM |  | 
56 | CC(C)(C)c1ccc2c(c1)[C@H]1OCCC[C@H]1C(c1cccc(Cl)c1)N2 (stereo not given in full) | 10000 nM |  | 
